Test results: PubChem BioAssay AID1963842 (Molecular Pharmacology Branch, DTP, NCI, 2024)

Tested on: 677734-321-R-J1-PDC complex spheroid viability
Test: Anticancer human tumor 677734-321-R-J1-PDC patient-derived soft tissue sarcoma cell line growth inhibition [POLQ]
Conditions: for IC50: curve of first compound; for viability, T/C: stronger effect = lower value; active = viability on the fitted dose curve at most 10% of control; inactive = the rest
Summary of the method: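 Growth inhibition in 3D: complex spheroids (tumor PDC, HUVEC, MSC) treated with POLQ inhibitor combinations; where Cmax unknown, highest tested concentration 10 microM, except SN-38 at 1 microM.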

[1] = second compound 0.0316 µM, first compound 0.0316 µM
[2] = second compound 0.0316 µM, first compound 0.1 µM
[3] = second compound 0.0316 µM, first compound 0.316 µM
[4] = second compound 0.0316 µM, first compound 1 µM
[5] = second compound 0.0316 µM, first compound 3.16 µM
[6] = second compound 0.0316 µM, first compound 10 µM
[7] = second compound 0.1 µM, first compound 0.0316 µM
[8] = second compound 0.1 µM, first compound 0.1 µM
[9] = second compound 0.1 µM, first compound 0.316 µM
[10] = second compound 0.1 µM, first compound 1 µM
[11] = second compound 0.1 µM, first compound 3.16 µM
[12] = second compound 0.1 µM, first compound 10 µM
[13] = second compound 0.316 µM, first compound 0.0316 µM
[14] = second compound 0.316 µM, first compound 0.1 µM
[15] = second compound 0.316 µM, first compound 0.316 µM
[16] = second compound 0.316 µM, first compound 1 µM
[17] = second compound 0.316 µM, first compound 3.16 µM
[18] = second compound 0.316 µM, first compound 10 µM
[19] = second compound 1 µM, first compound 0.0316 µM
[20] = second compound 1 µM, first compound 0.1 µM
[21] = second compound 1 µM, first compound 0.316 µM
[22] = second compound 1 µM, first compound 1 µM
[23] = second compound 1 µM, first compound 3.16 µM
[24] = second compound 1 µM, first compound 10 µM
[25] = second compound 3.16 µM, first compound 0.0316 µM
[26] = second compound 3.16 µM, first compound 0.1 µM
[27] = second compound 3.16 µM, first compound 0.316 µM
[28] = second compound 3.16 µM, first compound 1 µM
[29] = second compound 3.16 µM, first compound 3.16 µM
[30] = second compound 3.16 µM, first compound 10 µM
[31] = second compound 10 µM, first compound 0.0316 µM
[32] = second compound 10 µM, first compound 0.1 µM
[33] = second compound 10 µM, first compound 0.316 µM
[34] = second compound 10 µM, first compound 1 µM
[35] = second compound 10 µM, first compound 3.16 µM
[36] = second compound 10 µM, first compound 10 µM
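Note: spheroids exposed to compounds for one week.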
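Throughout, for viability, T/C: 100% = vehicle DMSO treated spheroids.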

C=CC(=O)N1CCN(c2nc(=O)n(-c3c(C)ccnc3C(C)C)c3nc(-c4c(O)cccc4F)c(F)cc23)C(C)C1 (stereo unspecified) + Nc1ccc(C#CCN(C(=O)Cc2ncc(C(F)(F)F)cc2C(F)(F)F)c2ccc(F)cc2)nn1
> 10 µM: IC50 (second compound 0.0316 µM) | IC50 (second compound 0.1 µM) | IC50 (second compound 0.316 µM) | IC50 (second compound 1 µM) | IC50 (second compound 3.16 µM)
inactive: viability, T/C [1] 114% | viability, T/C [2] 116% | viability, T/C [3] 101% | viability, T/C [4] 101% | viability, T/C [5] 89.2% | viability, T/C [6] 74.4% | viability, T/C [7] 107% | viability, T/C [8] 104% | viability, T/C [9] 93.7% | viability, T/C [10] 118% | viability, T/C [11] 82.7% | viability, T/C [12] 63.5% | viability, T/C [13] 94.4% | viability, T/C [14] 94.9% | viability, T/C [15] 101% | viability, T/C [16] 109% | viability, T/C [17] 86.9% | viability, T/C [18] 69.4% | viability, T/C [19] 112% | viability, T/C [20] 96.6% | viability, T/C [21] 92.4% | viability, T/C [22] 103% | viability, T/C [23] 104% | viability, T/C [24] 52.4% | viability, T/C [25] 107% | viability, T/C [26] 106% | viability, T/C [27] 111% | viability, T/C [28] 102% | viability, T/C [29] 103% | viability, T/C [30] 56.6% | viability, T/C [31] 136% | viability, T/C [32] 99.3% | viability, T/C [33] 107% | viability, T/C [34] 111% | viability, T/C [35] 85.4% | viability, T/C [36] 48.7%
9.87 µM: IC50 (second compound 10 µM)

CC(C)n1c(=O)n(C)c2cnc3cc(F)c(-c4ccc(OCCCN5CCCCC5)nc4)cc3c21 + Nc1ccc(C#CCN(C(=O)Cc2ncc(C(F)(F)F)cc2C(F)(F)F)c2ccc(F)cc2)nn1
> 10 µM: IC50 (second compound 0.0316 µM) | IC50 (second compound 0.1 µM) | IC50 (second compound 0.316 µM) | IC50 (second compound 1 µM) | IC50 (second compound 3.16 µM) | IC50 (second compound 10 µM)
inactive: viability, T/C [1] 94% | viability, T/C [2] 106% | viability, T/C [3] 103% | viability, T/C [4] 97.1% | viability, T/C [5] 87.7% | viability, T/C [6] 101% | viability, T/C [7] 99% | viability, T/C [8] 102% | viability, T/C [9] 92.2% | viability, T/C [10] 81.5% | viability, T/C [11] 72.6% | viability, T/C [12] 88.8% | viability, T/C [13] 90.2% | viability, T/C [14] 92.7% | viability, T/C [15] 98% | viability, T/C [16] 112% | viability, T/C [17] 84.9% | viability, T/C [18] 94.2% | viability, T/C [19] 109% | viability, T/C [20] 85.9% | viability, T/C [21] 93.6% | viability, T/C [22] 80.5% | viability, T/C [23] 84.9% | viability, T/C [24] 96.3% | viability, T/C [25] 112% | viability, T/C [26] 102% | viability, T/C [27] 95% | viability, T/C [28] 105% | viability, T/C [29] 83.3% | viability, T/C [30] 103% | viability, T/C [31] 85.3% | viability, T/C [32] 96.3% | viability, T/C [33] 93.3% | viability, T/C [34] 79.5% | viability, T/C [35] 93% | viability, T/C [36] 89.2%

CC1COCCN1c1cc(-c2ccnn2C)c2ccnc(-c3ccn[nH]3)c2n1 (stereo unspecified) + Nc1ccc(C#CCN(C(=O)Cc2ncc(C(F)(F)F)cc2C(F)(F)F)c2ccc(F)cc2)nn1
0.0551 µM: IC50 (second compound 10 µM)
0.0694 µM: IC50 (second compound 0.1 µM)
active: viability, T/C [4] 8.34% | viability, T/C [5] 8.12% | viability, T/C [6] 8.31% | viability, T/C [10] 9.63% | viability, T/C [11] 8.82% | viability, T/C [12] 8.21% | viability, T/C [15] 8.36% | viability, T/C [16] 8.25% | viability, T/C [17] 7.35% | viability, T/C [18] 8.3% | viability, T/C [21] 9.09% | viability, T/C [22] 10.1% | viability, T/C [23] 7.46% | viability, T/C [24] 7.2% | viability, T/C [28] 8.48% | viability, T/C [29] 7.93% | viability, T/C [30] 7.03%
0.0595 µM: IC50 (second compound 0.316 µM)
0.0605 µM: IC50 (second compound 1 µM)
inactive: viability, T/C [1] 74.6% | viability, T/C [2] 46.8% | viability, T/C [3] 11.6% | viability, T/C [7] 92.1% | viability, T/C [8] 30.4% | viability, T/C [9] 10.6% | viability, T/C [13] 82.1% | viability, T/C [14] 23.7% | viability, T/C [19] 89.5% | viability, T/C [20] 19.4% | viability, T/C [25] 77% | viability, T/C [26] 21.9% | viability, T/C [27] 17.6% | viability, T/C [31] 82.8% | viability, T/C [32] 15% | viability, T/C [33] 9.59% | viability, T/C [34] 9.21% | viability, T/C [35] 10.5% | viability, T/C [36] 11.5%
0.0566 µM: IC50 (second compound 3.16 µM)
0.0877 µM: IC50 (second compound 0.0316 µM)
